Laboratory results: PubChem BioAssay (NCI)
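Five concentrations, 48 hours, 96-well plates. GI50 = concentration required for 50% inhibition of growth. The concentration for full growth arrest is given as TGI.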

Experiments:
Experiment in all cases: NCI anticancer screen, dose series, 48 h
HCT-15 colon = tested on: HCT-15 colon
HOP-92 NSCLC = tested on: HOP-92 NSCLC
NCI-H522 lung = tested on: NCI-H522 lung
KM12 colon = tested on: KM12 colon
MOLT-4 leukemia = tested on: MOLT-4 leukemia
BT-549 breast = tested on: BT-549 breast
TK-10 renal = tested on: TK-10 renal
HOP-62 NSCLC = tested on: HOP-62 NSCLC
U251 CNS = tested on: U251 CNS
SN12C renal = tested on: SN12C renal
UACC-62 melanoma = tested on: UACC-62 melanoma
K-562 leukemia = tested on: K-562 leukemia
M14 melanoma = tested on: M14 melanoma
EKVX NSCLC = tested on: EKVX NSCLC
HS 578T breast = tested on: HS 578T breast
CCRF-CEM leukemia = tested on: CCRF-CEM leukemia
NCI/ADR-RES ovarian = tested on: NCI/ADR-RES ovarian
SW-620 colon = tested on: SW-620 colon
RXF 393 renal = tested on: RXF 393 renal
786-0 renal = tested on: 786-0 renal
RPMI-8226 leukemia = tested on: RPMI-8226 leukemia
CAKI-1 renal = tested on: CAKI-1 renal
OVCAR-5 ovarian = tested on: OVCAR-5 ovarian
SK-OV-3 ovarian = tested on: SK-OV-3 ovarian
HL-60(TB) leukemia = tested on: HL-60(TB) leukemia
COLO 205 colon = tested on: COLO 205 colon
MALME-3M melanoma = tested on: MALME-3M melanoma
DU-145 prostate = tested on: DU-145 prostate
HCT-116 colon = tested on: HCT-116 colon
NCI-H460 lung = tested on: NCI-H460 lung
MDA-MB-435 = tested on: MDA-MB-435
SR leukemia = tested on: SR leukemia
UACC-257 melanoma = tested on: UACC-257 melanoma
OVCAR-8 ovarian = tested on: OVCAR-8 ovarian
SNB-75 CNS = tested on: SNB-75 CNS
UO-31 renal = tested on: UO-31 renal
SF-539 CNS = tested on: SF-539 CNS
OVCAR-3 ovarian = tested on: OVCAR-3 ovarian
SK-MEL-2 melanoma = tested on: SK-MEL-2 melanoma
A498 renal = tested on: A498 renal
HT29 colon = tested on: HT29 colon
SF-295 CNS = tested on: SF-295 CNS
IGROV1 ovarian = tested on: IGROV1 ovarian
SK-MEL-28 melanoma = tested on: SK-MEL-28 melanoma
A549 NSCLC = tested on: A549 NSCLC
ACHN renal = tested on: ACHN renal
OVCAR-4 ovarian = tested on: OVCAR-4 ovarian
HCC-2998 colon = tested on: HCC-2998 colon
SK-MEL-5 melanoma = tested on: SK-MEL-5 melanoma
PC-3 prostate = tested on: PC-3 prostate

CNC(=O)c1cc(Oc2ccc3nc(NC(=O)c4ccc(CN5CCCN(C)CC5)c(C(F)(F)F)c4)sc3c2)ccn1
GI50 (HCT-15 colon): 0.959 µM | TGI (HCT-15 colon): 2.24 µM | GI50 (HOP-92 NSCLC): 1.36 µM | TGI (HOP-92 NSCLC): 3 µM | GI50 (NCI-H522 lung): 1.74 µM | TGI (NCI-H522 lung): 3.31 µM | GI50 (KM12 colon): 1.68 µM | TGI (KM12 colon): 3.21 µM | GI50 (MOLT-4 leukemia): 1.46 µM | TGI (MOLT-4 leukemia): 3.1 µM | GI50 (BT-549 breast): 1.68 µM | TGI (BT-549 breast): 3.14 µM | GI50 (TK-10 renal): 2.4 µM | TGI (TK-10 renal): 4.03 µM | GI50 (HOP-62 NSCLC): 1.61 µM | TGI (HOP-62 NSCLC): 3.08 µM | GI50 (U251 CNS): 1.44 µM | TGI (U251 CNS): 2.8 µM | GI50 (SN12C renal): 1.73 µM | TGI (SN12C renal): 3.3 µM | GI50 (UACC-62 melanoma): 1.69 µM | TGI (UACC-62 melanoma): 3.32 µM | GI50 (K-562 leukemia): 0.331 µM | TGI (K-562 leukemia): 1.46 µM | GI50 (M14 melanoma): 1.22 µM | TGI (M14 melanoma): 2.65 µM | GI50 (EKVX NSCLC): 1.7 µM | TGI (EKVX NSCLC): 3.14 µM | GI50 (HS 578T breast): 1.48 µM | TGI (HS 578T breast): 3.8 µM | GI50 (CCRF-CEM leukemia): 1.8 µM | TGI (CCRF-CEM leukemia): 4.06 µM | GI50 (NCI/ADR-RES ovarian): 1.68 µM | TGI (NCI/ADR-RES ovarian): 3.53 µM | GI50 (SW-620 colon): 1.7 µM | TGI (SW-620 colon): 3.19 µM | GI50 (RXF 393 renal): 1.07 µM | TGI (RXF 393 renal): 2.27 µM | GI50 (786-0 renal): 1.25 µM | TGI (786-0 renal): 2.55 µM | GI50 (RPMI-8226 leukemia): 0.694 µM | TGI (RPMI-8226 leukemia): 2.6 µM | GI50 (CAKI-1 renal): 1.52 µM | TGI (CAKI-1 renal): 2.9 µM | GI50 (OVCAR-5 ovarian): 1.64 µM | TGI (OVCAR-5 ovarian): 3.07 µM | GI50 (SK-OV-3 ovarian): 1.76 µM | TGI (SK-OV-3 ovarian): 3.27 µM | GI50 (HL-60(TB) leukemia): 1.35 µM | TGI (HL-60(TB) leukemia): 2.94 µM | GI50 (COLO 205 colon): 1.39 µM | TGI (COLO 205 colon): 2.78 µM | GI50 (MALME-3M melanoma): 1.4 µM | TGI (MALME-3M melanoma): 2.84 µM | GI50 (DU-145 prostate): 1.7 µM | TGI (DU-145 prostate): 3.28 µM | GI50 (HCT-116 colon): 1.16 µM | TGI (HCT-116 colon): 2.4 µM | GI50 (NCI-H460 lung): 1.65 µM | TGI (NCI-H460 lung): 3.14 µM | GI50 (MDA-MB-435): 1.48 µM | TGI (MDA-MB-435): 2.88 µM | GI50 (SR leukemia): 0.502 µM | TGI (SR leukemia): 2.15 µM | GI50 (UACC-257 melanoma): 1.57 µM | TGI (UACC-257 melanoma): 2.95 µM | GI50 (OVCAR-8 ovarian): 1.67 µM | TGI (OVCAR-8 ovarian): 3.18 µM | GI50 (SNB-75 CNS): 1.22 µM | TGI (SNB-75 CNS): 2.48 µM | GI50 (UO-31 renal): 1.35 µM | TGI (UO-31 renal): 2.71 µM | GI50 (SF-539 CNS): 1.1 µM | TGI (SF-539 CNS): 2.32 µM | GI50 (OVCAR-3 ovarian): 1.85 µM | TGI (OVCAR-3 ovarian): 3.41 µM | GI50 (SK-MEL-2 melanoma): 1.78 µM | TGI (SK-MEL-2 melanoma): 3.38 µM | GI50 (A498 renal): 1.96 µM | TGI (A498 renal): 3.38 µM | GI50 (HT29 colon): 0.387 µM | TGI (HT29 colon): 1.48 µM | GI50 (SF-295 CNS): 1.76 µM | TGI (SF-295 CNS): 3.22 µM | GI50 (IGROV1 ovarian): 1.74 µM | TGI (IGROV1 ovarian): 3.4 µM | GI50 (SK-MEL-28 melanoma): 1.3 µM | TGI (SK-MEL-28 melanoma): 2.64 µM | GI50 (A549 NSCLC): 1.64 µM | TGI (A549 NSCLC): 3.08 µM | GI50 (ACHN renal): 1.72 µM | TGI (ACHN renal): 3.09 µM | GI50 (OVCAR-4 ovarian): 1.6 µM | TGI (OVCAR-4 ovarian): 3.11 µM | GI50 (HCC-2998 colon): 1.88 µM | TGI (HCC-2998 colon): 3.36 µM | GI50 (SK-MEL-5 melanoma): 1.59 µM | TGI (SK-MEL-5 melanoma): 2.98 µM | GI50 (PC-3 prostate): 1.48 µM | TGI (PC-3 prostate): 3.24 µM
